Experimental data published in patent publication US20110237538A1, “TREATMENT OF LYSOSOMAL STORAGE DISORDERS AND OTHER PROTEOSTATIC DISEASES” (SUMMIT CORPORATION PLC, priority 2008, published 2011).

Key:
Format in all cases: biochemical
[1] = system: α-D-glucosidase (Bacillus sterothermophilus); assay: glycosidase assay with p-nitrophenyl substrates (Example 2); conditions: 10 μl of 5 mM iminosugar solution in 70 μl incubation mixture; 20° C.
Experimental: (§1) The assays were conducted as described by Watson et al. 1997, Phytochemistry 46: 255-259 using p-nitrophenyl-substrates. Assays were carried out in microtitre plates. Enzymes were assayed in 0.1M citric acid/0.2M di-sodium hydrogen phosphate (Mcllvaine) buffers at the optimum pH for the enzyme. All assays were carried out at 20° C. All enzymes and substrates were purchased from Sigma Aldrich Chemicals Limited. The incubation mixture consisted of 10 μl of enzyme solution, 10 μl of the iminosugars solution (made up in deionised water at 5 mM) and 50 μl of the appropriate 5 mM p-nitrophenyl substrate made up in McIlvaine buffer at the optimum pH for the enzyme. The reactions were stopped with 0.4M glycine (pH 10.4) during the exponential phase of the reaction, which was determined at the beginning of the assay using blanks with water, which were incubated for a range of time periods to measure the reaction rate using 5 mM substrate solution. Absorbances were read at 405 nm. Water was substituted for the inhibitors in the blanks.
(§2) The glycosidases used were α-D-glucosidase (yeast), α-D-glucosidase (Bacillus sterothermophilus), α-D-glucosidase (rice), amyloglucosidase (Aspergillus niger), β-D-glucosidase (almond), α-D-galactosidase (green coffee beans), β-D-galactosidase (bovine liver), α-L-fucosidase (bovine kidney), α-D-mannosidase (Jack bean), β-D-mannosidase (Cellullomonas fimi), Naringinase (Penicillium decumbens), N-acetyl-β-D-glucosaminidase (Bovine kidney), N-acetyl-β-D-glucosaminidase (Aspergillus oryzae) and N-acetyl-β-D-glucosaminidase (Jack bean)

[2] = target: T1, α-D-mannosidase (Jack bean) (Canavalia ensiformis, UniProt C0HJB3); assay: as above; conditions: 10 μl of 5 mM iminosugar solution in 70 μl incubation mixture; 20° C.
T1 construct: purchased Sigma Aldrich Chemicals Limited
T1 sequence (C0HJB3 1-981): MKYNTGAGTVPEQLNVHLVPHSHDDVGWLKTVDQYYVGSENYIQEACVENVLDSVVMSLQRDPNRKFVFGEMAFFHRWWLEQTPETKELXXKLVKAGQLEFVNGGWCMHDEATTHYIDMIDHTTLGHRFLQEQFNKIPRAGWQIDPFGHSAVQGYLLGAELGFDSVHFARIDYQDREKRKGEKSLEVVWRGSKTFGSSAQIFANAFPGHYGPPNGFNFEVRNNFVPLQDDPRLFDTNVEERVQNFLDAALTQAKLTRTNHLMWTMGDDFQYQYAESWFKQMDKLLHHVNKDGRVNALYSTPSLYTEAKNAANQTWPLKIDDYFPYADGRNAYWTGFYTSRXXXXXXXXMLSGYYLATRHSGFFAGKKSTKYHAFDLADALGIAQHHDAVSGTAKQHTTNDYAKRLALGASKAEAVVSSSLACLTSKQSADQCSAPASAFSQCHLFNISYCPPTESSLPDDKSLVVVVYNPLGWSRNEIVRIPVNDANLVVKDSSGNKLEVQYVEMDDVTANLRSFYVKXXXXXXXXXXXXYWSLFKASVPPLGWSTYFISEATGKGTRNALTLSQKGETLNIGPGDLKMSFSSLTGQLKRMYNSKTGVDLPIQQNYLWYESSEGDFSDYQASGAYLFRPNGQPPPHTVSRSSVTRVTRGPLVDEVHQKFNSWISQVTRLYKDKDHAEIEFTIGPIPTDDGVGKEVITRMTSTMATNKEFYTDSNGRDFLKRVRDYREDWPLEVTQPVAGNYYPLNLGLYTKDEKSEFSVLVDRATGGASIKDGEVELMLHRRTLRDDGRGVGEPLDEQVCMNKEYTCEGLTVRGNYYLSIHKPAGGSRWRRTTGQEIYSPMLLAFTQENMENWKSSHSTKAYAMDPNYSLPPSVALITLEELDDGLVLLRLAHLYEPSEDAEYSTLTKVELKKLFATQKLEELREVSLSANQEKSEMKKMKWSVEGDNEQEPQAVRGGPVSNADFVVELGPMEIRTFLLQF
Experimental: as §1, §2

[3] = target: T2, Jack bean α-D-mannosidase (Canavalia ensiformis, UniProt C0HJB3); assay: α-mannosidase activity assay with p-nitrophenyl-α-D-mannopyranoside (Example 1)
T2 construct: purchased Sigma M7257
T2 sequence (C0HJB3 1-981): T1 sequence (C0HJB3 1-981)
Experimental: Solutions of 0.2M Mcllvane buffer at pH 4.5 and 5 mM p-nitrophenyl-α-D-mannopyranoside (Sigma, N2127), dissolved in the buffer, were prepared. A solution of Jack bean α-D-mannosidase enzyme (Sigma, M7257, 22 Units/mg, 6.2 mg/ml.) was also prepared at 0.6 Units/ml in the buffer.
The incubation mixture consisted of 10 μl enzyme solution, 10 μl of 1 mg/ml aqueous iminosugar solution and 50 μl of 5 mM substrate made up in buffer at the optimum pH for the enzyme. The reactions were stopped by addition of 70 μl 0.4M glycine (pH 10.4) during the exponential phase of the reaction, which had been determined at the beginning using uninhibited assays in which water replaced inhibitor. Final absorbances were read at 405 nm using a Versamax microplate reader (Molecular Devices). Assays were carried out in triplicate, and the values given are means of the three replicates. Results were expressed as a percentage of uninhibited assays in which water replaced inhibitor.

[4] = system: N-acetyl-β-D-glucosaminidase (Bovine kidney); assay: glycosidase assay with p-nitrophenyl substrates (Example 2); conditions: 10 μl of 5 mM iminosugar solution in 70 μl incubation mixture; 20° C.
Experimental: as §1, §2

[5] = target: T3, α-D-galactosidase (green coffee beans) (Coffea arabica, UniProt Q42656); assay: as above; conditions: 10 μl of 5 mM iminosugar solution in 70 μl incubation mixture; 20° C.; read-out: Promotion of glycosidase activity: α-D-galactosidase (Green coffee bean)
T3 construct: purchased Sigma Aldrich Chemicals Limited
Experimental: as §1, §2

[6] = Jack Bean α-mannosidase, p-nitrophenyl-α-D-mannopyranoside as the substrate

T3 sequence (Q42656 16-378): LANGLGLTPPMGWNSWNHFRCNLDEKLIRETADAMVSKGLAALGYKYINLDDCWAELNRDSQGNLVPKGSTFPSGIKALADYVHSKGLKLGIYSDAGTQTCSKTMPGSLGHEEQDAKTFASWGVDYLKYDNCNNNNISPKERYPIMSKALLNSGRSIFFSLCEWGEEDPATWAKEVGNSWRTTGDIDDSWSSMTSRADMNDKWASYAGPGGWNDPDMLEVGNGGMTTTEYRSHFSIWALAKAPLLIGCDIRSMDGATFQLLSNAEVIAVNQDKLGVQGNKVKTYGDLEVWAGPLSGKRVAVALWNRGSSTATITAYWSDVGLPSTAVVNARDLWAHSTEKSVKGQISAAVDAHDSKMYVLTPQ

Row | promotion of the mannosidase activity (in words) [3, 6] | SMILES | Promotion of glycosidase activity: α-D-glucosidase (Bacillus sterothermophilus) [1] | Promotion of glycosidase activity: α-D-mannosidase (Jack bean) [2] | Promotion of glycosidase activity: N-acetyl-β-D-gluc (Bovine kidney) [4] | activation at 714 µM [5] [%] | other results
1 | – | CCOP(=O)(CCCN1C[C@@H](N=[N+]=[N-])C[C@H]1CO)OCC [Compound 291, diethyl 3-((2S,4S)-4-azido-2-(hydroxymethyl)pyrrolidin-1-yl)propylphosphonate] | 49 % increase in absorbance compared to the water controls | 43 % increase in absorbance compared to the water controls | – | – | –
2 | promotion of the mannosidase activity | OC[C@H](O)[C@@H]1NC[C@@](O)(CO)[C@H]1O [Compound 200, (2S,3S,4R)-2-((R)-1,2-dihydroxyethyl)-4-(hydroxymethyl)pyrrolidine-3,4-diol] | – | – | – | – | –
3 | – | CCCC[N@@+]1([O-])C[C@@H](O)[C@H](O)[C@@H]1CO [Compound 178, (1R,2S,3R,4R)-1-butyl-3,4-dihydroxy-2-(hydroxymethyl)pyrrolidine 1-oxide] | 161 % increase in absorbance compared to the water controls | 35 % increase in absorbance compared to the water controls | 85 % increase in absorbance compared to the water controls | – | –
4 | – | CN1C[C@H](O)C(O)[C@@H](O)C1 [Compound 299, (3S,5S)-1-methylpiperidine-3,4,5-triol] | – | 35 % increase in absorbance compared to the water controls | – | – | –
5 | promotion of the mannosidase activity | O=C1NC[C@@H](O)[C@@H](O)[C@]1(O)CO [Compound 170, (3R,4R,5R)-3,4,5-trihydroxy-3-(hydroxymethyl)piperidin-2-one] | – | – | – | – | –
6 | – | O=C1N[C@H]([C@H](O)CO)[C@H](OCc2ccccc2)[C@@H]1OCc1ccccc1 [Compound 242, (3S,4S,5R)-3,4-bis(benzyloxy)-5-((S)-1,2-dihydroxyethyl)pyrrolidin-2-one] | 65 % increase in absorbance compared to the water controls | – | 59 % increase in absorbance compared to the water controls | 38 | –
7 | – | CC1(C)O[C@H]2[C@H](O)[C@@H](CO[Si](C)(C)C(C)(C)C)NC(=O)[C@H]2O1 [Compound 238, (3aS,6R,7R,7aS)-6-((tert-butyldimethylsilyloxy)methyl)-7-hydroxy-2,2-dimethyltetrahydro-[1,3]dioxolo[4,5-c]pyridin-4(3aH)-one] | 127 % increase in absorbance compared to the water controls | – | 31 % increase in absorbance compared to the water controls | 30 | –
8 | promotion of the mannosidase activity | O=C(O)[C@@]1(O)CNC[C@@H](O)[C@H]1O [Compound 87, (3R,4R,5R)-3,4,5-trihydroxypiperidine-3-carboxylic acid] | – | – | – | – | –
9 | – | CCCCN1C[C@@H](N)C[C@H]1CO [Compound 292, ((2S,4S)-4-amino-1-butylpyrrolidin-2-yl)methanol] | – | 34 % increase in absorbance compared to the water controls | – | – | –
10 | – | CCCCCCCCCN1C[C@@H](O)[C@@H](O)[C@@H]1[C@@H](O)CO [Compound 316, (2S,3S,4R)-2-((R)-1,2-dihydroxyethyl)-1-nonylpyrrolidine-3,4-diol] | 167 % increase in absorbance compared to the water controls | – | 94 % increase in absorbance compared to the water controls | 42 | –
11 | – | CCCC[N@+]1([O-])C[C@H](O)[C@@H](O)[C@H]1CO [Compound 165, (1S,2R,3S,4S)-1-butyl-3,4-dihydroxy-2-(hydroxymethyl)pyrrolidine 1-oxide] | 72 % increase in absorbance compared to the water controls | 43 % increase in absorbance compared to the water controls | 76 % increase in absorbance compared to the water controls | – | –
12 | – | CCCC[N+]1([O-])C[C@@H](O)[C@H](O)[C@H]1CO (stereo partly drawn) [Compound 95, (2R,3R,4R)-1-butyl-3,4-dihydroxy-2-(hydroxymethyl)pyrrolidine 1-oxide] | 53 % increase in absorbance compared to the water controls | 86 % increase in absorbance compared to the water controls | 46 % increase in absorbance compared to the water controls | 35 | –
13 | strong stimulation | N[C@H]1[C@H](O)[C@H](O)[C@@H](O)[C@H](O)[C@@H]1CO [Compound A] | – | – | – | – | stimulation ([3]; Compound A alone): 90%
14 | – | N[C@H]1CN(Cc2ccccc2)[C@@H](CO)[C@@H]1O [Compound 312, (2S,3R,4S)-4-amino-1-benzyl-2-(hydroxymethyl)pyrrolidin-3-ol] | 52 % increase in absorbance compared to the water controls | – | – | 30 | –

Row | SMILES | promotion of the mannosidase activity (in words) [3, 6] | Promotion of glycosidase activity: α-D-glucosidase (Bacillus sterothermophilus) [1] | Promotion of glycosidase activity: α-D-mannosidase (Jack bean) [2] | Promotion of glycosidase activity: N-acetyl-β-D-gluc (Bovine kidney) [4] | activation at 714 µM [5] [%] | other results
15 | O[C@H]1[C@H]2[C@H](O)CCCN2C[C@H]1O [swainsonine, reference compound] | does not cause promotion | – | – | – | – | inhibition of the mannosidase (in words) [3, 6]: total inhibition of the promoted activity
